Data set [1] deals with Trichomonas vaginalis (clinically isolated strain). Briefly: Direct effect on Trichomonas vaginalis culture, number of individuals counted on a hemocytometer. It counts as cell-based. Particulars: 5.08 mg solid crystal added to Trichomonas medium F; culture of 3.93×10^5 individuals/mL; cultured at 37° C. for 4 days. How it is done:
The direct effect of luliconazole was investigated by using Trichomonas vaginalis (clinically isolated strain). That is, there were prepared a sample in which 5.08 mg of luliconazole of Comparative Example 1 recrystallized from n-hexane and ethyl acetate was added to “Trichomonas medium F” (produced by Fuji Pharma Co., Ltd.), a sample in which 5.08 mg of the crystal of Example 2 was added, and a sample (control) in which 5 μL of water was added. […] of a culture of Trichomonas vaginalis of 3.93×10^5 individuals/mL was added thereto, followed by being cultured at 37° C. for 4 days, and the number of individuals of Trichomonas was counted on a hemocytometer. A significant difference was confirmed at a significance level of not more than 1% among the three samples. Accordingly, it is appreciated that the crystal of the present invention is excellent in the solid-state reactivity.

A short description of data set [2]: Tablet hardness measurement with hardness meter PTB311. It is filed as physicochemical. Particulars: tablet of 50% by mass lactose and 50% by mass luliconazole, tablet making pressure 1 ton/cm^2, 9 mmφ, average of six samples. How it is done:
A tablet was manufactured in accordance with a formulation shown in Table 5 below, and the hardness was measured. PTB311 (produced by Pharma Test GmbH) was used as a hardness meter. As for the tablet making condition, the tablet making was performed at a tablet making pressure of 1 ton/cm^2 by using a pestle and a mortar of 9 mmφ. In Comparative Example, the operation was performed in the same manner as described above by using the crystal (Comparative Example 1) obtained by performing the recrystallization with n-hexane-ethyl acetate.

Data set [3] is described as follows: Dissolution state in ethanol, visually confirmed. It counts as physicochemical. Particulars: 20 mg crystal in 2 ml ethanol, stationarily placed at 30° C. for 2 hours. The protocol:
20 mg of each of the crystals was weighed, to which 2 ml of ethanol was added, followed by being stored by stationarily placed at 30° C. for 2 hours. The dissolution state was visually confirmed. Accordingly, it is appreciated that the crystal of the present invention is easily dissolved in the polar solvent.

The mark [4] stands for this setting: listed as crystal of Comp. Ex. 1.

Take `N#C/C(=C1/SC[C@@H](c2ccc(Cl)cc2Cl)S1)n1ccnc1` [Comp. Ex. 1, luliconazole, reference compound]: the “number of individuals of Trichomonas (Average)” value in data set [1] is given as 376000. The molecule also showed a Hardness in data set [2] (setting [4]) of 29.1 ± 3.0 N. In addition, the Dissolution state result in data set [3] (setting [4]) is listed as “crystal was found at bottom”.
As for `N#C/C(=C1/SC[C@@H](c2ccc(Cl)cc2Cl)S1)n1ccnc1` [Example 1, luliconazole], the Dissolution state result in data set [3] (listed as crystal of Example 1) was “no crystal was found”.
In the case of `N#C/C(=C1/SC[C@@H](c2ccc(Cl)cc2Cl)S1)n1ccnc1` [Example 2, luliconazole], in data set [1], the “number of individuals of Trichomonas (Average)” value turned out to be 256000. In data set [2] (listed as crystal of Example 2), this molecule returned a Hardness of 73.7 ± 4.2 N. The Dissolution state result in data set [3] (listed as crystal of Example 2) is given as “no crystal was found”.

Source of the values: patent US9527836B2, “Crystal having specific crystal habit and pharmaceutical composition containing the crystal as active ingredient” (POLA PHARMA INC., priority 2013, dated 2016).
